Biological target: T1, recombinant human mGluR2 (Homo sapiens, UniProt Q14416)
T1 construct: expressed in transfected cells
Assay: FLIPR Ca2+ mobilization assay, potentiation of glutamate response
Assay type: cell-based
Conditions: CHO dhfr- cells expressing human mGluR2 and Gα16; potentiation after EC20 glutamate (900 nM); read-out: Representative FLIPR EC50 Values: EC50
Method: The compounds of the present invention may be tested in a fluorescence laser imaging plate reader (FLIPR) based assay. This assay is a common functional assay to monitor Ca^2+ mobilization in whole cells expressing recombinant receptor coupled with a promiscuous G-protein. CHO dhfr-cells stably expressing recombinant human mGluR2 and Gα16 loaded with Fluo-4 AM (Invitrogen, Carlsbad Calif.) are treated with dose responses of compounds and the Ca^2+ response is monitored on a FLIPR384 (Molecular Devices, Sunnydale Calif.) for agonist activity. The potentiation response is monitored after a subsequent addition of an EC20 concentration of glutamate (900 nM). The maximum calcium response at each concentration of compound for agonist or potentiation are plotted as dose responses and the curves are fitted with a four parameters logistic equation giving EC50 and Hill coefficient using the iterative non linear curve fitting software program.

T1 sequence (Q14416 19-872): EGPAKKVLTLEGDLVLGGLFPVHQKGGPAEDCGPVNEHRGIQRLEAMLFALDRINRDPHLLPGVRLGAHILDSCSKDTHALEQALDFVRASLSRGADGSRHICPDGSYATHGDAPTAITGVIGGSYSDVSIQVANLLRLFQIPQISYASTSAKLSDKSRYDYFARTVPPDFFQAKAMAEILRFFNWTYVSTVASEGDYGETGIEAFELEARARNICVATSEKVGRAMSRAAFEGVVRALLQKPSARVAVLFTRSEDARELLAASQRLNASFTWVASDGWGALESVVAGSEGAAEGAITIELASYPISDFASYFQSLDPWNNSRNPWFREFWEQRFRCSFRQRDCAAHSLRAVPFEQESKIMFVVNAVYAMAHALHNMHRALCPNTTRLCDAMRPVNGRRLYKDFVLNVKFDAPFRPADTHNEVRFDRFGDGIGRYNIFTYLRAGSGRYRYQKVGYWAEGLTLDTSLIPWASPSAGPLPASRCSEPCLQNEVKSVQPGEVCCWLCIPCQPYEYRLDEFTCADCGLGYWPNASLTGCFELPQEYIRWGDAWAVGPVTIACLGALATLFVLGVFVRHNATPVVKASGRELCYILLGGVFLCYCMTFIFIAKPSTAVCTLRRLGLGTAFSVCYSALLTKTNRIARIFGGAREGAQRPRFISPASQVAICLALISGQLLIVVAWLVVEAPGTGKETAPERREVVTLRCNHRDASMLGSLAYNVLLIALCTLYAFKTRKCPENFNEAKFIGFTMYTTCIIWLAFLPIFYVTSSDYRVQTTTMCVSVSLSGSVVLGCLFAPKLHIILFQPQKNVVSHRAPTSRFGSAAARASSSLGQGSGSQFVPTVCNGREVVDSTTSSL

Compound | EC50
CC(C)(C)OC(=O)N1CCCC(C2Cn3c(nc4ccccc43)O2)C1 (centres unmarked) [Example 3-7, tert-butyl 3-(2,3-dihydro[1,3]oxazolo[3,2-a]benzimidazole-2-yl)piperidine-1-carboxylate] | 378 nM
(R)-2-(6-fluorohexyl)-2,3-dihydrobenzo oxazolo[3,2-a]imidazole-7-carbonitrile [Example 1-31] | 68 nM
c1ccc2c(c1)nc1n2CC(CC2CCCCC2)O1 (centres unmarked) [Example 3-5, 2-(cyclohexylmethyl)-2,3-dihydro[1,3]oxazolo[3,2-a]benzimidazole] | 2140 nM
CCCCCC[C@@H]1Cn2c(nc3cc(C#N)ccc32)O1 [Example 1-19, (2R)-2-hexyl-2,3-dihydro[1,3]oxazolo[3,2-a]benzimidazole-7-carbonitrile] | 11 nM
CCCCCC[C@@H]1Cn2c(nc3ccccc32)O1 [Example 1-5, (2R)-2-hexyl-2,3-dihydro[1,3]oxazolo[3,2-a]benzimidazole] | 21 nM
CCCCCCC1(C)Cn2c(nc3ccccc32)O1 (centres unmarked) [Example 4-2, 2-hexyl-2-methyl-2,3-dihydro[1,3]oxazolo[3,2-a]benzimidazole] | 622 nM
CCCCCCC1(CC)Cn2c(nc3ccccc32)O1 (centres unmarked) [Example 4-3] | 2290 nM
COCCCCC1Cn2c(nc3ccccc32)O1 (centres unmarked) [Example 1-21, 2-(4-methoxybutyl)-2,3-dihydrobenzo[d]oxazolo[3,2-a]imidazole] | 3120 nM

— patent US20110178117A1 (Merck Sharp & Dohme Corp., priority 2008, published 2011)
